Measured values as given in patent US20240009159A1, “ANTIVIRAL COMPOSITION FOR SARS-COV-2 AND HCOV-OC43 COMPRISING RHEIN, MECLOFENAMIC ACID, OR A COMBINATION THEREOF” (SEOUL NATIONAL UNIVERSITY R&DB FOUNDATION, priority 2020, published 2024).
Like-named read-outs stand apart in the source and are kept apart here.

Assays:
SARS-CoV-2 [1] = type: cell-based; details: SARS-CoV-2-infected Calu-3 cells
SARS-CoV-2 [2] = type: cell-based; details: SARS-CoV-2-infected Vero cells
HCoV-OC43 [3] = experiment: viral RNA level by qRT-PCR in HCoV-OC43-infected HCT-8 cells; type: cell-based, human coronavirus OC43 (HCoV-OC43)
HCoV-OC43 [4] = experiment: viral RNA level by qRT-PCR in HCoV-OC43-infected Vero cells; type: cell-based, human coronavirus OC43 (HCoV-OC43); details: for viral RNA level of N (normalized to GAPDH): control DMSO
SARS-CoV-2 [5] = type: cell-based; details: MA at 50 μM, treated two hours before infection; SARS-CoV-2-infected differentiated HBEC cells, 3.3×10^4 PFU; 48 hours after infection
[6] = rhein at 25 μM, MOI 0.05, 24 hours after infection, control DMSO

## O=C(O)c1cc(O)c2c(c1)C(=O)c1cccc(O)c1C2=O [rhein, 4,5-dihydroxy-9,10-dioxoanthracene-2-carboxylic acid]
SARS-CoV-2 [1]; [6]
  viral RNA levels of nsp12, M, and N (normalized to GAPDH) compared with the control group: less than 5%
SARS-CoV-2 [2]; [6]
  viral RNA levels of nsp12, M, and N (normalized to GAPDH) compared with the control group: less than 30%
HCoV-OC43 [3]; rhein at 250 μM and 25 μM, 24 hours after infection, control DMSO+Ethanol
  viral RNA level of N (normalized to GAPDH): significantly inhibited
HCoV-OC43 [4]; increasing concentration of rhein (5-50 μM), FIG. 1D
  dose dependence of inhibition of the RNA level of N: dose-dependent effect was confirmed
HCoV-OC43 [4]; rhein at 5 μM, 10 μM, 25 μM, and 50 μM, 24 hours after infection
  viral RNA level of N (normalized to GAPDH): significantly inhibited

## Cc1ccc(Cl)c(Nc2ccccc2C(=O)O)c1Cl [MA, meclofenamic acid]
SARS-CoV-2 [1]; MA at 50 μM, control ethanol
  viral RNA levels of nsp12, M, and N (normalized to GAPDH) compared with the control group: less than 5%
SARS-CoV-2 [2]; MA at 50 μM, control ethanol
  viral RNA levels of nsp12, M, and N (normalized to GAPDH) compared with the control group: less than 5%
HCoV-OC43 [3]; MA at 50 μM, control DMSO and ethanol
  viral RNA level of N (normalized to GAPDH): significantly inhibited
HCoV-OC43 [4]; MA at 10 μM, 25 μM, 50 μM, and 100 μM
  viral RNA level of N (normalized to GAPDH): significantly inhibited
SARS-CoV-2 [5]
  viral RNA levels (nsp12, M, and N, normalized to GAPDH) compared with the control group: ≤ 40%
